Data published in patent publication US20120003191A1, “VALPROIC ACID, DERIVATIVES, ANALOGUES, AND COMPOSITIONS INCLUDING SAME AND METHODS FOR THEIR THERAPEUTIC USE” (priority 2009, published 2012).

Key:
α7+/− myotubes [1] = assay: Quantification of myotube hypertrophy; type: cell-based, mouse
Experimental: (§1) α7^+/− myogenic cells were cultured on 1% gelatin-coated plastic plates in Ham's F-10 growth medium (20% FBS, 0.5% chick embryo extract, 5 ng/ml bFGF, 2 mM glutamine, 100 U/ml penicillin and 100 μg/ml streptomycin). After six passages, cells were grown in DMEM containing 20% FBS, 0.5% chick embryo extract, 2 mM glutamine, 100 U/ml penicillin and 100 μg/ml streptomycin. Differentiation was induced by switching the medium to DMEM containing 2% horse serum and antibiotics when cells attained 90% confluence. After 48 hours of differentiation, 2 mM VPA was added and supplied fresh every 24 hours. Wortmannin was used at 100 nM and added fresh every 24 hours.
[…] The cells were stained with anti-myosin heavy chain antibody (MF-20, 1:3 in 1% BSA in PBS) and FITC-conjugated donkey anti-mouse secondary antibody (1:200 in 1% BSA in PBS) for 1 hour each, and mounted in Vectashield with DAPI (Vector Laboratories, Burlingame, Calif.). Micrographs of ten fields were taken for VPA-treated and control myotubes using a Leica DMRXA2 microscope (Leica Microsystems, Germany), AxioCam digital camera (Zeiss Inc., Thorwood, N.Y.) and Openlab software (Improvision, Lexington, Mass.). Areas of myosin heavy chain positive myotubes were measured using Openlab software and the numbers of nuclei in each myotube were counted.
(§2) To test whether Akt activation by VPA in α7^+/− myotubes is dependent on PI3K, α7^+/− cells were differentiated for 48 hours and treated for 72 hours with 2 mM VPA with or without 100 nM Wortmannin. Fresh drugs were added every 24 hours. Phase-contrast micrographs of the cultures were captured at the end of 72 hours of treatment. To determine status of Akt activation in the cultures, α7^+/− myotubes were treated as above and protein extracts were made at the end of 72 hours of treatment using a 2% Triton X-100 extraction buffer (see below). Immunoblotting for phospho- and total Akt were done as detailed below.

α7+/− myotubes [2] = assay: Quantification of apoptosis in myotubes (TUNEL assay); type: cell-based, mouse
Experimental: Differentiating cultures of α7^+/− cells on 1% gelatin-coated Lab-Tek 8-well chamber slides (Nalge-Nunc International) were exposed to 2 mM VPA on day two of differentiation, and fresh VPA in differentiation medium was added every 24 hours. On day eight of differentiation, the DeadEnd Fluorometric TUNEL assay (Promega) was used to label apoptotic nuclei, following the manufacturer's instructions. The numbers of clusters of apoptotic nuclei in each chamber were counted.

mTOR = assay: Western blotting of activated mTOR in α7+/− myotubes; type: cell-based, mouse; details: VPA for 48 or 72 hours
Experimental: as §1
(§3) Cell lysates of differentiating cells on 60 mm dishes were prepared as follows: the cells were washed twice with PBS and 200 μl Triton X-100 lysis buffer (2% Triton X-100, 20 mM Tris-Cl, pH 7.4, 150 mM NaCl, 1 mM EDTA, 1 mM EGTA, 2.5 mM NaPPi, 1 mM β-glycerophosphate, 1 mM sodium vanadate, 1:200 Protease Inhibitor Cocktail (EMD Chemicals, San Diego, Calif.) and 1 mM PMSF) were added. […] Protein concentrations were determined by the Bradford assay. […] The supernatants were collected and protein concentrations were determined spectrophotometrically at OD260 and OD280. […] ImageQuant analysis software (Molecular Dynamics, Sunnyvale, Calif.) was used to quantify band intensity.

p70S6K = assay: Western blotting of activated p70S6K in α7+/− myotubes; type: cell-based, mouse; details: VPA for 48 or 72 hours
Experimental: as §1, §3

[3] = mice; cited from earlier work
Akt = assay: Western blotting of activated and total Akt in α7+/− myotubes; type: cell-based, mouse
Experimental: as §1, with “After 48 hours of differentiation, 2 mM VPA was added and supplied fresh every 24 hours.” left out
as §2
Cell lysates of differentiating cells on 60 mm dishes were prepared as follows: the cells were washed twice with PBS and 200 μl Triton X-100 lysis buffer (2% Triton X-100, 20 mM Tris-Cl, pH 7.4, 150 mM NaCl, 1 mM EDTA, 1 mM EGTA, 2.5 mM NaPPi, 1 mM β-glycerophosphate, 1 mM sodium vanadate, 1:200 Protease Inhibitor Cocktail (EMD Chemicals, San Diego, Calif.) and 1 mM PMSF) were added. The cells were scraped and transferred into Eppendorf tubes, the cell suspensions were triturated and centrifuged at 8000×g at 4° C. for 10 minutes, and the supernatants were collected. Lysates from mouse skeletal muscle were prepared as follows: the quadriceps muscles were dissected out, snap-frozen in liquid nitrogen and pulverized using a mortar and pestle. The powdered muscles were collected in Eppendorf tubes, 500 μl of Triton X-100 lysis buffer were added, rotated at 4° C. for 30 minutes, centrifuged at 8000×g for 10 minutes and the supernatants were collected. Protein concentrations were determined by the Bradford assay. SDS extracts of muscle were made by boiling powdered muscle in extraction buffer (100 mM Tris-Cl, pH 8.0, 10% SDS, 10 mM EDTA and 10% glycerol) for 10 minutes, vortexing vigorously, and centrifuging at 8000×g for 10 minutes. The supernatants were collected and protein concentrations were determined spectrophotometrically at OD260 and OD280. SDS-PAGE was carried out using 50 μg of protein for each sample and separated proteins were transferred to nitrocellulose membranes. For western blotting using antibodies against signaling proteins, membranes were blocked in 5% BSA in TBST for 2 hours at room temperature. For all other blots, incubations were done in 5% milk in TBST overnight at 4° C. The membranes were incubated overnight at 4° C. with primary antibodies diluted 1:1000 in 1% BSA in TBST. After washing in 1% BSA in TBST, blots were incubated for 1 hour in HRP-conjugated secondary antibodies diluted 1:5000 in 1% BSA in TBST. Blots were processed using the ECL kit (Amersham Biosciences, Piscataway, N.J.) and bands were visualized with Kodak Biomax MR film (Kodak, Rochester, N.Y.). ImageQuant analysis software (Molecular Dynamics, Sunnyvale, Calif.) was used to quantify band intensity.

ERK = assay: Western blotting of activated ERK in α7+/− myotubes; type: cell-based, mouse; details: VPA treated myotubes
Experimental: as §1, §3

[4] = humans; cited from earlier work

CCCC(CCC)C(=O)O [VPA, valproic acid]
number of nuclei per myotube compared to untreated controls (α7+/− myotubes [1]; 2 mM VPA): greater numbers of nuclei per myotube | myotube area per nucleus, greater than control (α7+/− myotubes [1]; 2 mM VPA, 72 hours): 1.6 fold | myotube size compared to controls (micrographs) (α7+/− myotubes [1]; 2 mM VPA, 72 hours): larger compared to controls | myotube size compared to controls after 1 hour exposure (α7+/− myotubes [1]; 30 mM VPA for 1 hour, observed 72 hours later): larger compared to controls | fewer apoptotic nuclei (TUNEL positive nuclear clusters) compared with control cells (α7+/− myotubes [2]; 2 mM VPA from day 2 of differentiation, day 6 of treatment): greater than 5 fold | appearance of cultures after day 8 (controls vacuolated, some detachment) (α7+/− myotubes [2]; 2 mM VPA, phase-contrast): appeared relatively normal | levels of activated mTOR (mTOR): higher levels | levels of activated p70S6K (p70S6K): higher levels | half-life [3]: about 45 minutes | levels of activated Akt, time course (Akt; 2 mM VPA daily, extracts every 24 hours up to 144 hours): higher levels of activated Akt at all time-points | concentration of maximal Akt activation (Akt; 1 hour exposure): 30 mM | levels of activated Akt (Akt; VPA for 48 or 72 hours): higher levels | higher levels of Akt in VPA treated cultures (Akt; beyond 96 hours): 2 to 3 fold | time to Akt activation (Akt; various concentrations of VPA, two-day old differentiating cultures): ≤ 1 h | levels of activated ERK (ERK): significantly lower levels | half life [4]: approximately 14 hours
